Consider eight molecules from BindingDB's records for doi:10.1111/cbdd.12458 (Pontificia Universidad Catolica De Chile, 2015).

Assay [1] addresses T1, Amine oxidase [flavin-containing] A (Rattus norvegicus, UniProt P21396).
T1 sequence (P21396 whole entry): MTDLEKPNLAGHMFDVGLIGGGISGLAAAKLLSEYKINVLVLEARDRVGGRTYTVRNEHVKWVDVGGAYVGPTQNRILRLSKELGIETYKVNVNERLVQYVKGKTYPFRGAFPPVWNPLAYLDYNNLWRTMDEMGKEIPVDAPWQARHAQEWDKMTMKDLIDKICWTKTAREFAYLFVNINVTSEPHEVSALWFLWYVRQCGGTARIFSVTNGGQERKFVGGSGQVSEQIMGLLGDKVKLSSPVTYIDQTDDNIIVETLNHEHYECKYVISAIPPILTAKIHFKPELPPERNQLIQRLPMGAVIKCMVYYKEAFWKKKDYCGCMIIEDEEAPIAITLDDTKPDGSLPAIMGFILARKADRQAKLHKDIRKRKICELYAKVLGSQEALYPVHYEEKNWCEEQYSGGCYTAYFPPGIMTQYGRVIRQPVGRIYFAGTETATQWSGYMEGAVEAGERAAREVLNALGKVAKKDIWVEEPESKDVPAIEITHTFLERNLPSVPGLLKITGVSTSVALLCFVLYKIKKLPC
Put plainly: Monoamine Oxidase Inhibition Assay. The protocol: (§1) Briefly, a crude rat brain mitochondrial suspension (male Sprague Dawley rats weighing 180 220 g, killed by decapitation) was used as protein source. Serotonin(5-HT, 100 µM) and 4-dimethylaminophenethylamine (DMAPEA, 5 µM) were used as selective substrates for MAO-A and MAO-B, respectively. The reaction mixtures were analyzed with a Merck-Hitachi HPLC (Tokyo, Japan), employing a C18 reverse phase column (Lichrospher 250 9 4.6 mm, 5 µm) and an amperometric detector (Merck Recipe L3500A). Tetrahydrofuran and acetonitrile (Merck) were used as eluents.

The target in assay [2] is T2, Amine oxidase [flavin-containing] B (Rattus norvegicus, UniProt P19643).
T2 sequence (P19643 whole entry): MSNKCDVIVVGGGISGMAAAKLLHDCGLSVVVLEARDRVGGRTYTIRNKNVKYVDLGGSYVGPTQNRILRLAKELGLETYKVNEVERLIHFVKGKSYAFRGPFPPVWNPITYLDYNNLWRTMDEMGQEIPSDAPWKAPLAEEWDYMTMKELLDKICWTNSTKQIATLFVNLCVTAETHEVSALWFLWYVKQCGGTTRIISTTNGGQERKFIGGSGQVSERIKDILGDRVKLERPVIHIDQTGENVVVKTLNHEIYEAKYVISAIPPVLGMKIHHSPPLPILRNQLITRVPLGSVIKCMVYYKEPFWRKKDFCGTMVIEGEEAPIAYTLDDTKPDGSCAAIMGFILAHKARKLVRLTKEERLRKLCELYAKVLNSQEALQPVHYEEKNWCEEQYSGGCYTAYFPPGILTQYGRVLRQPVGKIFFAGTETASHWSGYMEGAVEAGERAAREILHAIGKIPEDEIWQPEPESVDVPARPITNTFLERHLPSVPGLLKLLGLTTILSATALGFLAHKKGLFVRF
Put plainly: Monoamine Oxidase Inhibition Assay. The protocol:
as §1

One may read the IC50 as the concentration needed to halve the response being measured. In the case of `COc1ccc(O)c(C(=O)/C=C/c2cccc(OC)c2OC)c1` [(E)-3-(2,3-Dimethoxyphenyl)-1-(2-hydroxy-5-methoxyphenyl)prop-2-en-1-one (3g)], the IC50 was > 100 µM in assay [1] and 6.8 µM in assay [2].
On the same counts, the results for `COc1ccc(OC)c(/C=C/C(=O)c2c(O)cccc2OC)c1` [(E)-3-(2,5-Dimethoxyphenyl)-1-(2-hydroxy-6-methoxyphenyl)prop-2-en-1-one (3a)] are > 100 µM and 10.9 µM.
The matching figures for `COc1ccc(O)c(C(=O)/C=C/c2cc(OC)c(Br)cc2OC)c1` [(E)-3-(4-Bromo-2,5-dimethoxyphenyl)-1-(2-hydroxy-5-methoxyphenyl)prop-2-en-1-one (3h)]: > 100 µM and 2.8 µM.
For `COc1cc(/C=C/C(=O)c2c(O)cccc2OC)c(OC)cc1Br` [(E)-3-(4-Bromo-2,5-dimethoxyphenyl)-1-(2-hydroxy-6-methoxyphenyl)prop-2-en-1-one (3d)], the values for the IC50 in assay [1] and in assay [2] were > 100 µM and 6.1 µM, respectively.
For the molecule `COc1ccc2c(c1)C(=O)/C(=C/c1cccc(OC)c1OC)O2` [(Z)-2-(2,3-Dimethoxybenzylidene)-5-methoxybenzofuran-3(2H)-one (4g)], the IC50 in assay [1] is > 100 µM; in assay [2] it was 11.6 µM.
For the molecule `COc1ccc(OC)c(/C=C2\Oc3cccc(OC)c3C2=O)c1` [(Z)-2-(2,5-Dimethoxybenzylidene)-4-methoxybenzofuran-3(2H)-one (4a)], the half-inhibitory concentration (IC50) is > 100 µM in assay [1] and 17.8 µM in assay [2].
`COc1cc(/C=C2\Oc3cccc(OC)c3C2=O)c(OC)cc1Br` [(Z)-2-(4-Bromo-2,5-dimethoxybenzylidene)-4-methoxybenzofuran-3(2H)-one (4d)]: the IC50 is > 100 µM in assay [1] and 26.3 µM in assay [2].
As for `COc1ccc2c(c1)C(=O)/C(=C/c1cc(OC)c(Br)cc1OC)O2` [(Z)-2-(4-Bromo-2,5-dimethoxybenzylidene)-5-methoxybenzofuran-3(2H)-one (4h)], the IC50 in assay [1] was > 100 µM; in assay [2], 13.5 µM.
